Assay results published in patent publication US10960084B2, “Modulation of fluid intake” (California Institute of Technology, priority 2018, dated 2021).
“Also recorded” adds a separate entry of the source.

Tests used:
SFO^nNOS neurons = test: Salt/Mannitol loading with fiber photometry of SFO^nNOS/MnPO^nNOS neurons and drinking; type: in vivo, mice
Method: Salt/Mannitol Loading Experiments: 150 μL/300 μL of 2 M NaCl or 300 μL of 2 M Mannitol was injected intraperitoneally at the end of the acclimatization period. For FIGS. 1P-T and FIGS. 7P-S, CNO or vehicle (water) was injected 10 min prior to NaCl/Mannitol injection. We measured bulk fluorescence signals using fiber photometry as previously described^[26]. Briefly, 490 nm and 405 nm LEDs ([…] and […]) were collimated and delivered to the brain. The light intensity was kept less than 100 μW during all recordings. The fluorescence signal was then focused onto a femtowatt photoreceiver (Newport, Model 2151). The modulation and demodulation were done with an RP2.1 real time processor (Tucker-Davis Technologies) running custom software. The licks from the lickometer were simultaneously recorded as real-time TTL signals to the RP2.1. Fluorescence changes were analyzed using custom MATLAB (MathWorks) code as described previously^[26]. Data were extracted and subjected to a low pass filter at 1.8 Hz. A linear function was used to scale up the 405 nm channel signal to the 490 nm channel signal to get the fitted 405 nm signal. The resultant ΔF/F was calculated as (raw 490 nm signal-fitted 405 nm signal)/(fitted 405 nm signal). For brief access tests, the Area Under Curve (ΣΔFduring) was quantified by integrating the fluorescence signals during the bout. For all bouts, the mean fluorescence for 30 s prior to the first lick was calculated and subtracted from the entire session. ΔF changes (ΔFpost-ΔFpre) were calculated by subtracting the mean fluorescence signal during the 2-s period before the first lick from the mean signal during the 2-s at 1 min after the bout. For displaying traces, the fluorescence data was time-binned by a factor of 2.5 times the sampling frequency and down-sampled to 1 Hz. For long-term tests, the Area Under Curve was calculated for 2.5 min after the start of the bout. […] For […]), the first bout at the start of the session and the last bout within 10 min of access were used. The AUC for the PSTHs were calculated during the first or the last 15 seconds.

[1] = system: hM4Di-expressing MnPO^nNOS neurons; test: Slice current-clamp recording, CNO on hM4Di-expressing MnPO^nNOS neurons; type: cell-based, mice; settings: brain slices
Description: (§1) Procedures for preparation of acute brain slices and recordings with optogenetic stimulations were similar to those described previously^[10],[36]. After decapitation, the brain was removed and immersed in ice-cold solution. Coronal slices ([…]) were cut using a vibratome (VT-1200s, Leica) and moved into HEPES-holding solution (NaCl 92, KCl 2.5, NaH2PO4 1.2, NaHCO3 30, HEPES 20, glucose 25, Na-ascorbate 5, Thiourea 2, Na14 pyruvate 3, MgSO4 2, CaCl2 2, pH 7.35). The slices were allowed to recover at 33° C. for 30 min and then held at room temperature ([…]) until use.
(§2) While recording, slices were perfused continuously (˜2 mL/min) with artificial cerebrospinal fluid (ACSF-NaCl 124, KCl2.5, NaH2PO4 1.2, NaHCO3 24, glucose 25, MgSO4 1, CaCl2 2) at 25° C. Neurons were visualized and targeted using an upright IR19 DIC microscope (BX51WI, Olympus). […] In order to confirm the PSCs recorded were GABAergic, picrotoxin (150 μM) was applied through the bath in part of the experiments. […] CNO (˜6 μM) was applied by a puff (30 s) from another glass pipette placed ˜50 μm from the recorded cell.

mCherry control animals = test: mCherry controls for acute inhibition (CNO without hM4Di); type: in vivo, mice
Method: Long-term access assays: Optogenetic Testing—For FIGS. 1L-N and FIGS. 7L-O, satiated mice were given ad libitum access to water for 20 min with photostimulation. Photostimulation was delivered for 1-s followed by 3-s intervals throughout the behavioral sessions. For FIGS. 2J-M and FIGS. 11C-E, mice were given access to water for 20 min after 24 h water-restriction, and photostimulation was delivered for the first 10 min. For feeding assays (FIGS. 2J-M), animals were single-housed in Biodaq cages after 24 h food-restriction, and chow intake was measured for 20 min with or without light stimulation. For acute inhibition experiments, mice were given access to 150 mM NaCl (FIGS. 5D-E, FIGS. 13E-F), water (FIGS. 1L-N, FIGS. 7L-O, FIGS. 13A-D, FIGS. 13G-H) for 20-30 min after 24 h water-restriction or 300 mM sucrose (FIGS. 1L-N, FIGS. 7L-O) after food-restriction. For all acute inhibition experiments, CNO was injected at 10 mg/kg body weight, 30 min prior to the start of the behavior session. For acute activation experiments, CNO was injected at 1 mg/kg body weight (FIGS. 12L-M), 30 min prior to the start of the behavior session. […] The weight of the cup was measured before and after the behavior session. […] The entire session was recorded using a camera at 30 fps and ingestion episodes were manually annotated.

[2] = system: hM4Di-expressing MnPO^GLP1r neurons; test: Slice current-clamp recording, CNO on hM4Di-expressing MnPO^GLP1r neurons; type: cell-based, mice; settings: CNO application
Description: as §1, §2

[3] = GCaMP6s fiber photometry, MnPO^nNOS inhibited by CNO

## C[N+]1([O-])CCN(C2=Nc3cc(Cl)ccc3Nc3ccccc32)CC1 [CNO, clozapine-N-oxide]
SFO^nNOS neurons; [3]
  calcium increases / activity of SFO^nNOS neurons by mannitol-induced osmotic stress: unaffected; also recorded: without changing the activity
  calcium increases in SFO^nNOS neurons by NaCl-induced osmotic stress: unaffected
SFO^nNOS neurons; hM4Di in MnPO^nNOS, CNO 10 min prior to intraperitoneal Mannitol
  drinking behavior after Mannitol injection: intensely suppressed drinking responses; also recorded: drastically suppressed drinking behavior
SFO^nNOS neurons; hM4Di in MnPO^nNOS, CNO 10 min prior to intraperitoneal NaCl
  drinking behavior after NaCl injection: intensely suppressed drinking responses; also recorded: drastically suppressed drinking behavior
[1]; CNO application
  neurons in which firing is inhibited: 6/6
[1]; brief application of CNO
  firing of hM4Di-expressing MnPO^nNOS neurons: strongly suppressed the firing
mCherry control animals; AAV-DIO-mCherry in the MnPO of nNOS-Cre animals, 5-s brief access
  intake after water or food-restriction: showed no reduction
mCherry control animals; mCherry controls in MnPO^GLP1r, water deprived, 30 min
  saline or water drinking, CNO vs vehicle: No significant difference
[2]
  neurons in which firing is inhibited: 6/7
